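The compound was tested at five concentrations on cells cultured in 96-well plates, with a 48-hour exposure period. TGI denotes the concentration required for complete inhibition of growth.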
Columns and labels:
Assay in all cases: DTP human tumour cell line panel, 48 h
[1] = test system: NCI-H460 lung
[2] = test system: A498 renal
[3] = test system: UACC-62 melanoma
[4] = test system: DU-145 prostate
[5] = test system: SNB-19 CNS
[6] = test system: A549 NSCLC
[7] = test system: T-47D breast
[8] = test system: NCI-H522 lung
[9] = test system: ACHN renal
[10] = test system: OVCAR-4 ovarian
[11] = test system: SF-539 CNS
[12] = test system: CCRF-CEM leukemia
[13] = test system: SK-MEL-28 melanoma
[14] = test system: PC-3 prostate
[15] = test system: U251 CNS
[16] = test system: NCI/ADR-RES ovarian
[17] = test system: RXF 393 renal
[18] = test system: MDA-MB-231 breast
[19] = test system: CAKI-1 renal
[20] = test system: HOP-62 NSCLC
[21] = test system: 786-0 renal
[22] = test system: IGROV1 ovarian
[23] = test system: M14 melanoma
[24] = test system: SN12C renal
[25] = test system: MCF7 breast
[26] = test system: SK-MEL-2 melanoma
[27] = test system: TK-10 renal
[28] = test system: HCT-116 colon
[29] = test system: MDA-N
[30] = test system: SNB-75 CNS
[31] = test system: OVCAR-8 ovarian
[32] = test system: OVCAR-5 ovarian
[33] = test system: EKVX NSCLC
[34] = test system: HS 578T breast
[35] = test system: SF-268 CNS
[36] = test system: HCT-15 colon
[37] = test system: MDA-MB-435
[38] = test system: BT-549 breast
[39] = test system: KM12 colon
[40] = test system: K-562 leukemia
[41] = test system: SF-295 CNS
[42] = test system: HT29 colon
[43] = test system: SW-620 colon
[44] = test system: SK-OV-3 ovarian
[45] = test system: MALME-3M melanoma
[46] = test system: RPMI-8226 leukemia
[47] = test system: NCI-H226 lung
[48] = test system: COLO 205 colon
[49] = test system: UACC-257 melanoma
[50] = test system: OVCAR-3 ovarian
[51] = test system: UO-31 renal
[52] = test system: LOX IMVI melanoma
[53] = test system: NCI-H23 lung
[54] = test system: HOP-92 NSCLC
[55] = test system: HL-60(TB) leukemia
[56] = test system: MOLT-4 leukemia

**Q.** Which results are given for `C=C1C(=O)C2=C[C@H]1C[C@H](O)C(=O)[C@]1(C)CCCC(C)(C)[C@H]1C[C@H]2O`?
**A.** TGI [1]: 8.77 µM; TGI [2]: 3.73 µM; TGI [3]: 3.05 µM; TGI [4]: 4.04 µM; TGI [5]: 29.8 µM; TGI [6]: 2.81 µM; TGI [7]: 2.36 µM; TGI [8]: 1.41 µM; TGI [9]: 1.65 µM; TGI [10]: 19.2 µM; TGI [11]: 2.6 µM; TGI [12]: 0.326 µM; TGI [13]: 3.44 µM; TGI [14]: 3.62 µM; TGI [15]: 2.6 µM; TGI [16]: 3.16 µM; TGI [17]: 1.3 µM; TGI [18]: 2.64 µM; TGI [19]: 2.85 µM; TGI [20]: 25.5 µM; TGI [21]: 2.14 µM; TGI [22]: 12.8 µM; TGI [23]: 2.85 µM; TGI [24]: 4.07 µM; TGI [25]: 1.63 µM; TGI [26]: 20.9 µM; TGI [27]: 2.08 µM; TGI [28]: 3 µM; TGI [29]: 4.06 µM; TGI [30]: 17.4 µM; TGI [31]: 5.93 µM; TGI [32]: 3.72 µM; TGI [33]: 3.31 µM; TGI [34]: 8.61 µM; TGI [35]: 13.9 µM; TGI [36]: 1.96 µM; TGI [37]: 10.2 µM; TGI [38]: 5.66 µM; TGI [39]: 5.78 µM; TGI [40]: 0.824 µM; TGI [41]: 20.5 µM; TGI [42]: 2.85 µM; TGI [43]: 1.95 µM; TGI [44]: 25.4 µM; TGI [45]: 2.05 µM; TGI [46]: 1.02 µM; TGI [47]: 23 µM; TGI [48]: 1.85 µM; TGI [49]: 4.27 µM; TGI [50]: 4 µM; TGI [51]: 5.27 µM; TGI [52]: 2.14 µM; TGI [53]: 3.15 µM; TGI [54]: 3.01 µM; TGI [55]: 1.03 µM; TGI [56]: 10.3 µM

— PubChem BioAssay (NCI)
